Experimental data from patent US11655215B2, “Photostabilizing compounds, compositions, and methods” (ELC MANAGEMENT LLC, priority 2018, dated 2023).

How the values were obtained:
Format in all cases: physicochemical
[1] = Singlet oxygen generation quenching, Stern-Volmer, Pp-MeIX in CDCl3; conditions: air saturated CDCl3, Pp-MeIX, 532 nm excitation, 1O2 phosphorescence at 1270 nm; slope of FIG. 8B
Experimental: (§1) Singlet oxygen phosphorescence measurements of the air saturated CDCl3 solutions of the dimethyl ester derivative of PpIX (Pp-MeIX) at the concentration optimal for light absorption and Compound 1 at various concentrations were performed on a modified Fluorolog-3 spectrometer (HORIBA Jobin Yvon) in conjunction with a NIR sensitive photomultiplier tube (H102330A-45, Hamamatsu). A Spectra Physics GCR-150-30 Nd:YAG laser (532 nm, ca. 5 mJ per pulse, 7 ns) was used for pulsed excitation to collect ^1O2 phosphorescence decay traces at 1270 nm which were stored on a digital oscilloscope (TDS 360 from Tektronics). The Stern-Volmer plots of singlet oxygen phosphorescence were illustrated in FIG. 8B. The Stern-Volmer constant Ksv was calculated from the slope of the plot in FIG. 8B to be 14±1 M^−1, which is a direct measurement of the singlet oxygen suppression efficiency of Compound 1.

[2] = Singlet oxygen generation quenching, Stern-Volmer, Pp-MeIX in acetonitrile; conditions: air saturated acetonitrile, 532 nm excitation, 1O2 phosphorescence at 1270 nm, slope of FIG. 7
Experimental: as §1, with “acetonitrile” for “CDCl3”, “7.” for “8B.”, “7” for “8B”, “57±2” for “14±1”

[3] = Keto-Avobenzone triplet state quenching (laser flash photolysis, transient absorption); conditions: deoxygenated acetonitrile, avobenzone 0.25 mM, 266 nm flash photolysis, monitored at 380 nm; slope of FIG. 3
Experimental: The deoxygenated acetonitrile solutions of avobenzone at 0.25 mM and Compound 1 at various concentrations were measured for transient absorption on a homebuilt system (Y. Yagci, S. Jockusch and N. J. Turro, Macromolecules, 2007, 40, 4481-4485; hereby incorporated by reference in its entirety). Keto-Avobenzone was generated by photolysis of enol-Avobenzone at 350 nm. Laser flash photolysis of keto-Avobenzone was conducted at 266 nm with 5 ns pulse width as shown below:
The decay traces of the triplet-absorption of keto-Avobenzone was monitored at 380 nm.

[4] = Singlet oxygen quenching rate constant in acetonitrile (phosphorescence lifetime); conditions: air saturated acetonitrile, Pp-MeIX, 1O2 phosphorescence lifetime at 1270 nm; slope of FIG. 9B
Experimental: as §1, with “acetonitrile” for “CDCl3”, “Tektronics).” for “Tektronics). The Stern-Volmer plots of singlet oxygen phosphorescence were illustrated in FIG. 8B. The Stern-Volmer constant Ksv was calculated from the slope of the plot in FIG. 8B to be 14±1 M^−1, which is a direct measurement of the singlet oxygen suppression efficiency of Compound 1.”

[5] = Fluorescence quenching of retinol (TCSPC fluorescence lifetimes); conditions: THF, retinol 0.2 mM, excitation 335 nm, fluorescence at 483 nm; slope of FIG. 2
Experimental: (§2) The THF solutions of retinol at 0.2 mM and Compound 1 at various concentration were measured on OB920 TR-SPC (Edinburgh Analytical Instruments) by time-correlated single photon counting (TCSPC) using a pulsed LED (335 nm, 5 MHz) for excitation (PicoQuant) for the corresponding fluorescence lifetimes. The fluorescence signal was collected at 483 nm.

[6] = PpIX triplet state quenching (transient absorption); conditions: Argon saturated acetonitrile, 532 nm excitation, transient absorbance at 630 nm; slope of FIG. 4
Experimental: The Argon saturated acetonitrile solutions of Protoporphyrin IX (PpIX) at a concentration optimal for light absorption and Compound 1 at various concentrations were measured for transient absorption on a homebuilt system (Y. Yagci, S. Jockusch and N. J. Turro, Macromolecules, 2007, 40, 4481-4485; hereby incorporated by reference in its entirety). Triplet lifetimes were measured at 532 nm (7 ns pulse length) and the transient absorbance was monitored at 630 nm.

[7] = PpIX singlet excited state quenching (TCSPC fluorescence lifetimes); conditions: acetonitrile, excitation 496 nm, fluorescence at 630 nm; slope of FIG. 5
Experimental: as §2, with “acetonitrile” for “THF”, “PpIX” for “retinol”, “a concentration optimal for light absorption” for “0.2 mM”, “(496 nm)” for “(335 nm, 5 MHz)”, “630” for “483”

CCCCC(CC)COC(=O)/C(C#N)=C1/c2ccccc2-c2cccnc21 (stereo not shown) [Compound 1]
Stern-Volmer constant Ksv (singlet oxygen suppression efficiency) [1]: 14 ± 1 M⁻¹ | Stern-Volmer constant Ksv (singlet oxygen suppression efficiency) [2]: 57 ± 2 M⁻¹ | quenching rate constant kq of keto-Avobenzone triplet states [3]: (3.5±0.2)×10^9 M^−1s^−1 | bimolecular quenching rate constant kq of singlet oxygen quenching [4]: 1.5±0.1×10^5 M^−1s^−1 | bimolecular quenching rate constant Kq of quenching of retinol fluorescence [5]: (9.0±0.3)×10^9 M^−1s^−1 | quenching rate constant kq of PpIX triplet states [6]: 2.7±0.1×10^7 M^−1s^−1 | bimolecular quenching rate constant Kq of quenching of PpIX fluorescence (singlet excited state) [7]: 2.5±0.1×10^9 M^−1s^−1
